Where “and” joins values, the source holds several entries; their conditions need not be identical. Equal values may be shown once. Read-outs that look alike come from different tables or passages of the source.
How the values were obtained:
[1] = system: Salmonella typhimurium TA97a; details: TA 97a, no S9
Method: (§1) In the preincubation experiment, test compounds and mutagen, each having a volume of 0.1 mL of varying concentrations, were preincubated at 37°C for 30 min and then 0.1 mL of 1 × 10^7 CFU/mL density of the bacterial culture was added, followed by the addition of 2.5 mL of top agar at 45°C (containing 0.5% NaCl and 0.6% agar) supplemented with 0.5 mM histidine-biotin. […] The combined solutions were vortexed and poured onto minimal glucose plates (40% glucose solution and Vogel Bonner medium). The plates were incubated at 37°C for 48 h and the numbers of histidine-independent revertants colonies were scored.
(§2) Survival of the bacteria was routinely monitored for each experiment. Parallel controls were run with compounds alone at all concentrations to test the possible toxicity. The concentrations of the test samples for investigating the antimutagenicity were 50, 100, 200, and 500 μM. […] All the test samples and mutagens were dissolved in DMSO (final conc., 0.01%). […] Plates were set up in triplicate for each concentration and the entire experiment was repeated three times. Inhibition of mutagenicity was expressed as percentage decrease of reverse mutation and calculated as (1) Percent inhibition=[(a−b)/(a−c)]×100, where a = number of histidine revertants induced by mutagen, b = number of histidine revertants induced by mutagen in the presence of test compound, and c = number of revertants induced in negative control.

[2] = system: Salmonella typhimurium TA98; details: TA 98, no S9
Method: as §1, §2

[3] = system: Salmonella typhimurium TA100; details: TA 100, no S9
Method: as §1, §2

[4] = system: Salmonella typhimurium TA102; details: TA 102, no S9
Method: as §1, §2

[5] = positive control MMS 1.5 μg (Table 8)

Compound	Number of His+ revertants colonies/plate ([1]; positive control MMS 1.0 μg)	Number of His+ revertants colonies/plate [1, 5]	Number of His+ revertants colonies/plate ([2]; positive control MMS 1.0 μg)	Number of His+ revertants colonies/plate [2, 5]	Number of His+ revertants colonies/plate ([3]; positive control MMS 1.0 μg)	Number of His+ revertants colonies/plate [3, 5]	Number of His+ revertants colonies/plate ([4]; positive control MMS 1.0 μg)	Number of His+ revertants colonies/plate [4, 5]	Number of His+ revertants colonies/plate ([1]; positive control NaN3 1.5 μg)	Number of His+ revertants colonies/plate ([2]; positive control NaN3 1.5 μg)	Number of His+ revertants colonies/plate ([3]; positive control NaN3 1.5 μg)	Number of His+ revertants colonies/plate ([4]; positive control NaN3 1.5 μg)
COS(C)(=O)=O [MMS, Methyl methanesulfonate, reference compound]	449 colonies/plate and 449.7 ± 7.2 colonies/plate	449.7 ± 7.2 colonies/plate	53.7 ± 1.5 colonies/plate	53.7 ± 1.5 colonies/plate	963.0 ± 11.4 colonies/plate	963.0 ± 11.4 colonies/plate	1237.0 ± 14.5 colonies/plate	1237.0 ± 14.5 colonies/plate				
[N-]=[N+]=[N-].[Na+] [NaN3, Sodium azide, reference compound]									256.0 ± 11.7 colonies/plate	52.3 ± 1.8 colonies/plate	361.3 ± 11.0 colonies/plate	370.0 ± 9.0 colonies/plate and 355.0 ± 15.5 colonies/plate

Source: PMC4052943 (BioMed Research International, 2014)
